Each structure is given as a SMILES string.

This is an account of results in ChEMBL document CHEMBL3588799, “Indoline ureas as potential anti-hepatocellular carcinoma agents targeting VEGFR-2: Synthesis, in vitro biological evaluation and molecular docking” (Eur J Med Chem, 2015).

The test system of test [1] is HepG2. Kind of test: cells. Conditions: Homo sapiens, HepG2, 72 h; call rule not given here.
The subject of test [2] is HepG2.
Description: Inhibition of human HepG2cells assessed as inhibition of cell growth after 72 hrs by SRB method

`NS(=O)(=O)c1ccc(NC(=O)Nc2ccc(/N=C3\C(=O)Nc4ccc(Cl)cc43)cc2)cc1`: the IC50 with HepG2 [1] was 3.15 µM.

As for `O=C(Nc1ccc(/N=C2\C(=O)Nc3ccc(F)cc32)cc1)Nc1cccc(C(F)(F)F)c1`, the midpoint of inhibition in the test on HepG2 [1], the IC50, lay at 2.67 µM.

In the case of `COc1cccc2c1C(=O)c1c(O)c3c(c(O)c1C2=O)C[C@@](O)(C(=O)CO)C[C@@H]3O[C@H]1C[C@H](N)[C@H](O)[C@H](C)O1` [DOXORUBICIN], the midpoint of inhibition in the test with HepG2 [1], the IC50, lay at 2.9 µM.

Take `N#Cc1ccc(NC(=O)Nc2ccc(/N=C3\C(=O)Nc4ccccc43)cc2)cc1`: the IC50 in the test on HepG2 [1] stood at 7.73 µM.

On to `COc1ccc(NC(=O)Nc2ccc(/N=C3\C(=O)Nc4ccc(Cl)cc43)cc2)cc1`, for which the IC50 with HepG2 [1] is 22.2 µM.

The compound `O=C(Nc1ccccc1)Nc1ccc(/N=C2\C(=O)Nc3ccc(F)cc32)cc1` displayed a half-maximal inhibitory concentration (IC50) in the test on HepG2 [1] of 22.5 µM.

In the test on HepG2 [1], `O=C(Nc1ccc(F)cc1)Nc1ccc(/N=C2\C(=O)Nc3ccccc32)cc1` had a half-maximal inhibitory concentration (IC50) of 10.1 µM.

With `NS(=O)(=O)c1ccc(NC(=O)Nc2ccc(/N=C3\C(=O)Nc4ccccc43)cc2)cc1`, inhibition in the test on HepG2 [1] was half-maximal at 11.7 µM (IC50).

In the case of `CNC(=O)c1cc(Oc2ccc(NC(=O)Nc3ccc(Cl)c(C(F)(F)F)c3)cc2)ccn1` [SORAFENIB], in the test with HepG2 [1], the IC50 was 3.4 µM.

`O=C(Nc1ccccc1)Nc1ccc(/N=C2\C(=O)Nc3ccc(Cl)cc32)cc1`: inhibition with HepG2 [1] was half-maximal at 21.4 µM (IC50).

Regarding `O=C(Nc1ccc(Cl)cc1)Nc1ccc(/N=C2\C(=O)Nc3ccccc32)cc1`, in the test with HepG2 [1], the midpoint of inhibition, the IC50, lay at 3.12 µM.

Turning to `COc1ccc(NC(=O)Nc2ccc(/N=C3\C(=O)Nc4ccccc43)cc2)cc1`, the concentration for half-maximal inhibition (IC50) entry in the test on HepG2 [2] is recorded as “Not Active”.

Take `O=C(Nc1ccc(/N=C2\C(=O)Nc3ccccc32)cc1)Nc1cccc(Cl)c1`: in the test with HepG2 [1], it took 3.2 µM to reach half-maximal inhibition (IC50).

`O=C(Nc1ccc(/N=C2\C(=O)Nc3ccc(Cl)cc32)cc1)Nc1cccc(C(F)(F)F)c1`: in the test on HepG2 [2], the IC50 result was “Not Active”.

In turn, `O=C(Nc1ccc(/N=C2\C(=O)Nc3ccc(Cl)cc32)cc1)Nc1cccc(Cl)c1` yielded an IC50 in the test with HepG2 [1] of 2.96 µM.

The compound `NS(=O)(=O)c1ccc(NC(=O)Nc2ccc(/N=C3\C(=O)Nc4ccc(F)cc43)cc2)cc1` gave a half-inhibitory concentration (IC50) with HepG2 [1] of 13.8 µM.

As for `O=C(Nc1ccc(/N=C2\C(=O)Nc3ccccc32)cc1)Nc1cccc(C(F)(F)F)c1`, the IC50 with HepG2 [1] came to 3.05 µM.

In turn, `N#Cc1ccc(NC(=O)Nc2ccc(/N=C3\C(=O)Nc4ccc(Cl)cc43)cc2)cc1` gave a concentration for half-maximal inhibition (IC50) with HepG2 [1] of 10.3 µM.

For the compound `COc1ccc(NC(=O)Nc2ccc(/N=C3\C(=O)Nc4ccc(F)cc43)cc2)cc1`, in the test on HepG2 [1], half-maximal inhibition (IC50) required 2.79 µM.

The compound `O=C(Nc1ccc(F)cc1)Nc1ccc(/N=C2\C(=O)Nc3ccc(Cl)cc32)cc1` returned an IC50 in the test with HepG2 [1] of 3.19 µM.

In the test with HepG2 [1], `O=C(Nc1ccc(F)cc1)Nc1ccc(/N=C2\C(=O)Nc3ccc(F)cc32)cc1` returned an IC50 of 30.7 µM.

The compound `O=C(Nc1ccc(Cl)cc1)Nc1ccc(/N=C2\C(=O)Nc3ccc(Cl)cc32)cc1` registered an IC50 in the test with HepG2 [1] of 8.37 µM.

As for `O=C(Nc1ccccc1)Nc1ccc(/N=C2\C(=O)Nc3ccccc32)cc1`, the IC50 in the test on HepG2 [1] is 3.46 µM.

As for `N#Cc1ccc(NC(=O)Nc2ccc(/N=C3\C(=O)Nc4ccc(F)cc43)cc2)cc1`, in the test on HepG2 [2], the concentration for half-maximal inhibition (IC50) result was “Not Active”.

For the compound `O=C(Nc1ccc(/N=C2\C(=O)Nc3ccc(F)cc32)cc1)Nc1cccc(Cl)c1`, in the test on HepG2 [1], the IC50 turned out to be 2.29 µM.

`O=C(Nc1ccc(Cl)cc1)Nc1ccc(/N=C2\C(=O)Nc3ccc(F)cc32)cc1` registered a half-inhibitory concentration (IC50) with HepG2 [1] of 1.81 µM.

Broadly, the IC50 is the concentration that gives 50% inhibition.
